{"source": "paper PMC12881674", "about": "“Activation of TRPV3 channels in bladder cancer cells stimulates ATP release” (Molecular Pharmacology, 2025)", "molecular_target": "T1, mouse TRPV2 (Mus musculus, UniProt Q9WTR1)", "T1 construct": "expressed in transfected cells; host or cells: HEK293", "T1 sequence (Q9WTR1 1-756)": "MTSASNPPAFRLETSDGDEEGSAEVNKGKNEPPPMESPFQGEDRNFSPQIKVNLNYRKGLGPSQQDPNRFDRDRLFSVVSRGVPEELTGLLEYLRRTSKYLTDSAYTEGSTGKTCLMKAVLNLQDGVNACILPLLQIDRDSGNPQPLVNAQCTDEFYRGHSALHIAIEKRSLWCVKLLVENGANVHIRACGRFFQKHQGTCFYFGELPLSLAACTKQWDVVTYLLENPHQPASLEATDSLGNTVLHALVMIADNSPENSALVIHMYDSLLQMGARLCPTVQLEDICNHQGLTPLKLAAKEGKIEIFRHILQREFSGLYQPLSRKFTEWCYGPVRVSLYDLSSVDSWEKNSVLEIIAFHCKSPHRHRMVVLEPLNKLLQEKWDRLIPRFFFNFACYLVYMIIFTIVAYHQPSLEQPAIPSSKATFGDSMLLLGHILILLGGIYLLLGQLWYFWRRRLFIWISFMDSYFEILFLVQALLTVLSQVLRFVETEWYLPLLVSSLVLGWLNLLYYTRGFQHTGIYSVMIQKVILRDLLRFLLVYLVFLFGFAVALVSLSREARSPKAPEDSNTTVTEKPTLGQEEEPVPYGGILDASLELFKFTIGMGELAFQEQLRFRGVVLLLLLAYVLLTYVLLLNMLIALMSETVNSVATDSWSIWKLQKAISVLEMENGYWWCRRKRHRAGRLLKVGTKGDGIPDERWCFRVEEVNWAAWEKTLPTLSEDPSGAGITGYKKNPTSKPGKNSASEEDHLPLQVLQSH", "test": "fluo-4 Ca2+ assay selectivity, HEK cells expressing mouse TRPV2", "format": "cell-based", "details": "concentrations up to 50 μM", "description": "KU-19-19 (DSMZ no. ACC 395), CAL-29 (DSMZ no. ACC 515), 647-V (DSMZ no. ACC 414), RT-4 (DSMZ no. ACC 412), and RT-112 (DSMZ no. ACC 418) bladder cancer cell lines were obtained from the Leibniz Institute DSMZ (German Collection of Microorganisms and Cell Cultures). Human TRPV3 (NM_145068, purchased from OriGene) and mouse TRPV3 (NM_001371006), rat TRPV1, mouse TRPV2, mouse TRPV4, human TRPM2, human TRPM8, and human TRPA1 were stably transfected in HEK293 cells as described before.[27] […]\nAll fluorometric Ca^2+ assays were performed in HBS buffer at room temperature. […] For the primary compound screening and the generation of concentration-response analyses, a robotic liquid handling station (Freedom Evo 150; Tecan) with a built-in custom-made fluorescence plate imager was used. […] Fluorescence was excited using a 470-nm light-emitting diode, and emitted light was imaged through a 515-nm–long pass filter with a cooled Zyla 5.5 camera (Andor). Fluorescence was recorded and processed under the control of the μ-Manager 2.0 gamma software (https://micro-manager.org.[28]). After recording baseline fluorescence, compounds were dispensed into the wells via the liquid handling device. […] For further analysis, fluorescence signals were calculated for each well, corrected for background intensities and normalized to the initial signals. […]"}
{"compound": "COC(=O)C12CN(Cc3ccccc3)CC1(C(=O)OC)CN(Cc1ccccc1)C2", "note": "(stereo not shown) [AV3-1]", "values": [{"measurement": "effect on TRPV2", "value": "no effect"}]}
